Broadly, the melting point is the temperature, or range, at which the solid turns liquid.

Experimental findings from a melting point compilation (Tetko et al.; mined from patent text by program, amines drawn as free bases though some values may be those of a salt) are described below.

Take `CCOC(=O)c1ccc(Cn2c(NC3CCN(C(=O)OCC)CC3)nc3ccccc32)o1`: the melting point came out at 136 °C.

Take `COC(=O)c1ccccc1NC(=O)CC(C)=O`: the melting point was 79 to 80 °C. With `CCOC(=O)C1CCN(C(=O)c2ccc(/C=C/C(=O)O)cc2)CC1`, the melting point is 165 °C.

`CNn1c(N(C)C)n[nH]c1=O`: the melting point was 129 °C. `CCOC(=O)C(=O)Nc1ccc(S(N)(=O)=O)cc1[N+](=O)[O-]`: the melting point lay in the range of 193 to 195 °C.

`N#CC(c1ccc(Cl)cc1)c1c(Cl)cc(NN=Cc2ccccc2)cc1Cl` (stereo not drawn) had a melting point of 162 to 163 °C.

For the molecule `NCc1nnc2n1-c1sc(Cl)cc1C(c1ccccc1Cl)=NC2`, the melting point was 190 to 192 °C. As to `COC(=O)C(Cc1ccc(OCCN(C)c2nc3ccccc3o2)cc1)Sc1ccc(C)cc1` (stereo not drawn), the melting point was 88.6 to 90.1 °C.

`CC(=O)Nc1cccc(C2=CCNc3c(C#N)cnn32)c1` yielded a melting point of 251 to 254 °C. `CC12CCC(=O)C(CSc3ccccc3)=C1CCC1C2CCC2(C)C1CCC2(C)O` (stereo not drawn) displayed a melting point of 123 to 130 °C. Molecule `COc1ccc(C(=O)[C@H]2CC=CC[C@H]2C(=O)O)cc1OC` (relative stereo) yielded a melting point of 110 to 112 °C.

In turn, `COc1ccc2c3c([nH]c2c1[N+](=O)[O-])C(=O)CC3` showed a melting point of 228 °C. `CCOC(=O)c1cc(NCc2ccccc2)c(Oc2ccc(OCc3ccccc3)cc2)c(S(N)(=O)=O)c1` showed a melting point of 166 °C. The value for `CC(=O)Nc1nc(CCc2ccc(CN3CCNCC3)cc2)cs1` was 164 to 166 °C; that for `COc1c(C)cc(N)c(CS(=O)c2nc3ccccc3[nH]2)c1C` (stereo not drawn) was 150 to 155 °C; that for `COc1ccc(OC(C)c2ccnc3ncnn23)cc1` (stereo not drawn) was 112 to 114 °C.

Molecule `COc1c(-c2cc3c(s2)CCC(CO)=C3)ccc2c(=O)c(C(=O)O)cn(C3CC3)c12` gave a melting point of 205 to 206 °C. With `COc1cc(Nc2cc(-c3ccccc3)on2)ccc1-c1cnco1` the figure was 173 to 175 °C.

`CC(C)NC(=O)c1c[nH]c2ncc(-c3nn(CCCN(C)C)c4cc(Cl)cc(F)c34)nc12`: the melting point lay within 249 to 255 °C.

As to `O=C(Nc1cc2ncc(CN3CCCC3)cc2cc1F)c1ccc(Br)cc1F`, the melting point was in the range of 149 to 151 °C. `CCCCNC(=O)c1cccc(-c2ccnc3c(C(=O)c4cccs4)cnn23)c1` showed a melting point of 172 to 174 °C.

The molecule `Cc1cc(C)c(C)c(OCC(=O)O)c1` returned a melting point of 129 to 130 °C. The molecule `Cc1ccc(C=C(C=O)C(C=O)=Cc2ccc(C)cc2)cc1` displayed a melting point of 177 to 178 °C. In the case of `N=C(Nc1ccc2c(c1)C1CCCN1CC2)c1cccs1` (stereo not drawn), the melting point lay in the range of 193 to 196 °C.

Take `Oc1ncnc2c1nc(CC1CCN(CC3COc4ccccc4O3)CC1)n2Cc1ccc(F)cc1` (stereo not drawn): the melting point was 201 °C. Turning to `N#CC(C(=O)c1ccncc1)c1ccc(F)cc1` (stereo not drawn), the melting point lay in the range of 230 to 232 °C. With `CCCOc1nc2cccc(C(=O)O)c2n1Cc1ccc(-c2ccccc2-c2nc(=O)o[nH]2)cc1` the figure was 170 to 172 °C; with `O=C1C=c2c(c3c4ccccc4sc3c3[nH]c4ccccc4c23)=N1`, > 300 °C. On to `Cc1cc2cc(CN3CCCC3)cnc2cc1NC(=O)c1ccc(-c2ccc(F)cc2F)cc1`, for which the melting point was in the range of 158 to 160 °C. Regarding `CC(C)n1c(Cl)nc2ccccc21`, the melting point fell in the range of 58 to 60 °C. The value for `NS(=O)(=O)c1ccc(N2CCN(CC[C@@H]3OCCc4cc(Br)ccc43)CC2)c(Br)c1` was 206 to 208 °C; that for `COc1cc(C(=O)c2ccc(N)c(C(=O)O)c2)n2ccccc12` was 106 °C; that for `C=CCN(C(C)c1ccccc1)S(=O)(=O)c1ccc(O)cc1` (stereo not drawn) was 128 to 129 °C. The molecule `O=C1N(c2ccccc2Br)Cc2cnc(Nc3ccccc3)nc2N1c1cccc(CO)c1` registered a melting point of 136 °C. In turn, `Cc1nnc(-c2ccc3occ(-c4ccccc4Cl)c3c2)o1` yielded a melting point of 83 to 84 °C.

Molecule `N#Cc1cc(-c2ccc(Cl)cc2)c[nH]c1=O` had a melting point of 278 to 280 °C.

Molecule `Cn1nc(C(F)(F)F)cc1Oc1cccc(Cl)n1` returned a melting point of 56 to 58 °C. Molecule `CC(C)(C)OCC1CN(c2ccc3ccccc3c2)C(=O)O1` (stereo not drawn) yielded a melting point of 112 to 113 °C. `NCCCNc1cccc2[nH]ncc12`: the melting point is 154 to 163 °C. Molecule `CCCCc1nn(-c2cccc(NC(=O)CC)c2)c(=O)n1Cc1ccc(-c2ccccc2S(=O)(=O)NC(=O)c2ccccc2Cl)cc1` displayed a melting point of 105 to 107 °C. On to `Cc1cc2c(cc1S(N)(=O)=O)S(=O)(=O)NC(c1cccnn1)=N2`, for which the melting point fell in the range of 330 to 335 °C. As to `O=C(O)c1cn(-c2ccc(OC(F)(F)F)c(Cl)c2)cn1`, the melting point fell in the range of 230 to 231 °C.

For the molecule `CC(C)(C)OC(=O)N1CCOS1(=O)=O`, the melting point was determined as 122 °C. With `COc1cc(C(=O)N(C(C)C)C2CCCCC2)ccc1Cn1c(-c2ccccc2Cl)nc2ncccc21` the figure was 121 to 123 °C; with `CC1(C)C(=O)Nc2cc3[nH]c(O)nc3cc21`, > 300 °C. On to `O=C1CCCNC12CCCCC2`, for which the melting point was 55 °C.

With `CC(C)(C)NC(=O)N(Cc1ccccc1)CC(O)C(Cc1ccccc1)NC(=O)C(CC(N)=O)NC(=O)c1ccc2ccccc2n1` (stereo not drawn), the melting point lay in the range of 110 to 112 °C.

With `CCOc1cc2c(cc1OCC)-c1c(C#N)sc(=N)n1CC2`, the melting point lay in the range of 180 to 182 °C.

Molecule `COC(=O)c1ccc(C(=O)c2cc3c(cc2OCc2ccc(C(C)(C)C)cc2)C(C)(C)CCC3(C)C)cc1` gave a melting point of 168 to 170 °C. The molecule `CCOC(=O)/C(Cl)=N/Nc1ccc(OC)cc1` displayed a melting point of 87 to 89 °C. `O=S(=O)(c1ccc2ccccc2c1)N1CCCC1c1ccc(F)cc1` (racemic): the melting point was found to be 166 °C. With `O=C(Cc1ccccc1)c1ccc(OCCN2CCCC2)cc1` the figure was 77 to 78 °C; with `CCCc1ncc(C(=O)OCC)c(NCc2ccc(-c3ccccc3-c3nnnn3C(c3ccccc3)(c3ccccc3)c3ccccc3)cc2)n1`, 132 to 133 °C; with `O=[N+]([O-])c1ccc(NS(=O)(=O)c2cccc3ccccc23)cc1`, 210 to 215 °C. As for `Oc1c(F)cc(Cn2c(S)nc3ccccc32)cc1F`, the melting point worked out at 200 °C. `CCCCCN1C(=O)C(N)(CC(=O)c2cccs2)c2ccccc21` (stereo not drawn) yielded a melting point of 167 to 169 °C. The molecule `O=C(O)COc1cc2c(c(Cl)c1Cl)C(=O)C(C1CCCC1)C2` (stereo not drawn) had a melting point of 184 to 186 °C. With `ClCc1ccc(CN=C(Nc2ccccc2-c2ccccc2)Nc2ccccc2-c2ccccc2)cc1` the figure was 87 to 91.5 °C. `CC(C)(Oc1ccc(NC(=O)c2cc(Cl)cc(Cl)c2)cc1)C(=O)O` returned a melting point of 206 to 207 °C.

`O=C1C(O)=C([N+](=O)[O-])C(=O)c2ccc(Br)cc21` showed a melting point of 172 °C. In turn, `C[C@H]1CN(c2c(F)c(N)c3c(=O)c(C(=O)O)cn(C4CC4)c3c2F)C[C@H]1CN` (relative stereo) returned a melting point of 221 to 223 °C. On to `COCc1cc2c(cc1O)CCC1C2CCC2(C)C(=O)CCC12` (stereo not drawn), for which the melting point is 149 to 151 °C.

For `O=C(c1ccc(-c2ccc(=O)n(-c3ccc(F)cc3)n2)cc1)N1CCC[C@H]1CN1CCCC1`, the melting point turned out to be 177 °C. `CCOC(=O)C(=O)Nc1sc(C(=O)OCC)c(CC)c1[N+](=O)[O-]` came in with a melting point of 70 to 73 °C. `O=S(=O)(c1ccccc1)c1ccc(NN=C2CCCN(Cc3ccccc3)CC2)cc1` showed a melting point of 142 to 146 °C. `CC(=O)Oc1cnccc1CCCOc1cccnc1Oc1cccc(Br)c1`: the melting point lay within 110 to 112 °C.

The molecule `COC(=O)CCCC(=O)c1ccc(O)c(O)c1` came in with a melting point of 104 to 106 °C.

`CC#CC(C)n1nnc2cc3c(=O)n(C(C)Cn4ncnn4)nnc3cc2c1=O` (stereo not drawn) had a melting point of 72 to 74 °C.

In the case of `CN(C(=O)c1ccc2c(c1)nc(NC(=O)c1cccs1)n2CCCC(N)=O)C1CCCCC1`, the melting point was in the range of 112 to 115 °C. Turning to `Clc1ccc(C2NCCc3c2[nH]c2ccccc32)cc1` (stereo not drawn), the melting point was determined as 161 °C.

Regarding `COc1ccc2c(n1)C1(CO2)C(=O)N(Cc2ccccn2)c2ccccc21` (stereo not drawn), the melting point is 168 to 171 °C. For `O=c1[nH]c(=O)n(CCCCCCl)c2ccccc12`, the melting point fell in the range of 162 to 163 °C.

`NC(=S)Nc1ccc(Br)cn1` showed a melting point of 242 to 243 °C. On to `ClCc1cc(-c2ccccc2)no1`, for which the melting point lay in the range of 69 to 70 °C. With `CCOCCc1nnc(S)n1N` the figure was 123 to 124 °C. The molecule `N#Cc1cccc(C=Cc2ccc(Cl)c(Cl)c2)n1` displayed a melting point of 124 to 125 °C. The value for `CNC(=O)c1cc2c(nc(C)n2C)c(O)c1CC[C@@H](O)c1ccccc1` was 247 to 249 °C; that for `CC(C)Oc1cc(-n2nc(C(F)(F)F)n(C)c2=O)c(Cl)cc1Cl` was 96 to 98 °C. In turn, `Cc1cc2cc(CN3CCC(CCCC(=O)N(C)C)CC3)cnc2cc1NC(=O)c1ccc(-c2ccc(F)cc2)cc1` had a melting point of 194 °C. In turn, `COc1ccc(C#N)c(F)c1OC(C)=O` yielded a melting point of 90 to 91 °C. On to `CC(C)(C)OC(=O)CON=C(C(=O)O)c1ccsc1`, for which the melting point fell in the range of 103 to 104 °C. With `CCCCCCCCCCCCCCOc1cc(OCCCCCCc2cccc(O)c2O)cc(C(=O)O)c1` the figure was 92 to 94 °C.

As to `COc1ccc(COC2CCCn3c2c(-c2ccccc2)c2cc(C)c(C)cc2c3=O)cc1` (stereo not drawn), the melting point fell in the range of 145 to 146 °C. `CC(C)(C)c1ccc(CCC(CO)CC2CCCCC2)cc1NC(=O)CC1c2ccccc2Oc2ccccc21` (stereo not drawn) yielded a melting point of 130 to 131 °C.

`CCN(CC)S(=O)(=O)c1ccc(Oc2ccc(S(=O)(=O)C(F)(F)F)cc2)cc1` showed a melting point of 83 to 84 °C. As to `COC(=O)c1cc(OCc2cc(SC)cc(SC)c2)cc(OCc2cc(SC)cc(SC)c2)c1`, the melting point lay within 121 to 122 °C. For `CCOC(=O)c1cn(NC=O)c2cc3c(cc2c1=O)OCO3`, the melting point fell in the range of 255 to 257 °C. Take `Cc1ccc(C2c3c(C)c(NC(=O)OC(C)(C)C)c(C)c(C)c3OC2(C)C)cc1` (stereo not drawn): the melting point lay within 124 to 125 °C.
